In one test the target is FASN enzyme (Homo sapiens, UniProt P49327). In words: Enzymatic Assay for FASN Inhibitors. The format is biochemical. The gist of the method: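 40 nM FASN preincubated with compound 60 min at 25° C in HEPES pH 7.3 buffer with 0.04% Triton X-100. Then 20 μM acetyl-CoA, 60 μM malonyl-CoA and 100 μM NADPH added for 90 min, quenched with CPM thiol probe; fluorescence 360/530 nm, IC50 by four-parameter fit.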

Another test relates to PC3 cells. In words: Cell Proliferation Assays for FASN Inhibitors (PC3 cells, MTT). The conditions noted are these: Homo sapiens, PC-3, 96 h. The class given is cell-based. The protocol: The effects of the FASN inhibitors on cultured cancer cell proliferation were studies with cell proliferation assays. PC3 cells were maintained at standard culture media (F12K media supplemented with 10% fetal bovine serum, 1×MEM nonessential amino acid and 1× penicillin/streptomycin). 2000-3000 cells/100 μL/well was seeded in a 96-well clear culture plate. The cells were incubated overnight in 5% CO2 at 37° C. for attachment. Cell media were removed and replaced with F12K media containing 10% lipid reduced serum and compound. The final DMSO concentration is 0.1%. The cells were maintained in 5% CO2 at 37° C. for 4 days. The viability of cells was determined by MTT assays. The IC50 of a given compound was calculated by fitting the dose response curve with a four parameter logistic equation.

Setting [1] is: read-out: IC50 (uM) < 0.5, 10% lipid reduced serum, 4 days, Table 3-1.

These results are taken from patent publication US10457655B2, “Compounds and compositions for inhibition of FASN” (FORMA Therapeutics, Inc., priority 2013, dated 2019).

One may read the IC50 as the concentration at which inhibition is half-maximal.

Read-outs that look alike come from different tables or passages of the source.

Chain of FASN enzyme (P49327 whole entry): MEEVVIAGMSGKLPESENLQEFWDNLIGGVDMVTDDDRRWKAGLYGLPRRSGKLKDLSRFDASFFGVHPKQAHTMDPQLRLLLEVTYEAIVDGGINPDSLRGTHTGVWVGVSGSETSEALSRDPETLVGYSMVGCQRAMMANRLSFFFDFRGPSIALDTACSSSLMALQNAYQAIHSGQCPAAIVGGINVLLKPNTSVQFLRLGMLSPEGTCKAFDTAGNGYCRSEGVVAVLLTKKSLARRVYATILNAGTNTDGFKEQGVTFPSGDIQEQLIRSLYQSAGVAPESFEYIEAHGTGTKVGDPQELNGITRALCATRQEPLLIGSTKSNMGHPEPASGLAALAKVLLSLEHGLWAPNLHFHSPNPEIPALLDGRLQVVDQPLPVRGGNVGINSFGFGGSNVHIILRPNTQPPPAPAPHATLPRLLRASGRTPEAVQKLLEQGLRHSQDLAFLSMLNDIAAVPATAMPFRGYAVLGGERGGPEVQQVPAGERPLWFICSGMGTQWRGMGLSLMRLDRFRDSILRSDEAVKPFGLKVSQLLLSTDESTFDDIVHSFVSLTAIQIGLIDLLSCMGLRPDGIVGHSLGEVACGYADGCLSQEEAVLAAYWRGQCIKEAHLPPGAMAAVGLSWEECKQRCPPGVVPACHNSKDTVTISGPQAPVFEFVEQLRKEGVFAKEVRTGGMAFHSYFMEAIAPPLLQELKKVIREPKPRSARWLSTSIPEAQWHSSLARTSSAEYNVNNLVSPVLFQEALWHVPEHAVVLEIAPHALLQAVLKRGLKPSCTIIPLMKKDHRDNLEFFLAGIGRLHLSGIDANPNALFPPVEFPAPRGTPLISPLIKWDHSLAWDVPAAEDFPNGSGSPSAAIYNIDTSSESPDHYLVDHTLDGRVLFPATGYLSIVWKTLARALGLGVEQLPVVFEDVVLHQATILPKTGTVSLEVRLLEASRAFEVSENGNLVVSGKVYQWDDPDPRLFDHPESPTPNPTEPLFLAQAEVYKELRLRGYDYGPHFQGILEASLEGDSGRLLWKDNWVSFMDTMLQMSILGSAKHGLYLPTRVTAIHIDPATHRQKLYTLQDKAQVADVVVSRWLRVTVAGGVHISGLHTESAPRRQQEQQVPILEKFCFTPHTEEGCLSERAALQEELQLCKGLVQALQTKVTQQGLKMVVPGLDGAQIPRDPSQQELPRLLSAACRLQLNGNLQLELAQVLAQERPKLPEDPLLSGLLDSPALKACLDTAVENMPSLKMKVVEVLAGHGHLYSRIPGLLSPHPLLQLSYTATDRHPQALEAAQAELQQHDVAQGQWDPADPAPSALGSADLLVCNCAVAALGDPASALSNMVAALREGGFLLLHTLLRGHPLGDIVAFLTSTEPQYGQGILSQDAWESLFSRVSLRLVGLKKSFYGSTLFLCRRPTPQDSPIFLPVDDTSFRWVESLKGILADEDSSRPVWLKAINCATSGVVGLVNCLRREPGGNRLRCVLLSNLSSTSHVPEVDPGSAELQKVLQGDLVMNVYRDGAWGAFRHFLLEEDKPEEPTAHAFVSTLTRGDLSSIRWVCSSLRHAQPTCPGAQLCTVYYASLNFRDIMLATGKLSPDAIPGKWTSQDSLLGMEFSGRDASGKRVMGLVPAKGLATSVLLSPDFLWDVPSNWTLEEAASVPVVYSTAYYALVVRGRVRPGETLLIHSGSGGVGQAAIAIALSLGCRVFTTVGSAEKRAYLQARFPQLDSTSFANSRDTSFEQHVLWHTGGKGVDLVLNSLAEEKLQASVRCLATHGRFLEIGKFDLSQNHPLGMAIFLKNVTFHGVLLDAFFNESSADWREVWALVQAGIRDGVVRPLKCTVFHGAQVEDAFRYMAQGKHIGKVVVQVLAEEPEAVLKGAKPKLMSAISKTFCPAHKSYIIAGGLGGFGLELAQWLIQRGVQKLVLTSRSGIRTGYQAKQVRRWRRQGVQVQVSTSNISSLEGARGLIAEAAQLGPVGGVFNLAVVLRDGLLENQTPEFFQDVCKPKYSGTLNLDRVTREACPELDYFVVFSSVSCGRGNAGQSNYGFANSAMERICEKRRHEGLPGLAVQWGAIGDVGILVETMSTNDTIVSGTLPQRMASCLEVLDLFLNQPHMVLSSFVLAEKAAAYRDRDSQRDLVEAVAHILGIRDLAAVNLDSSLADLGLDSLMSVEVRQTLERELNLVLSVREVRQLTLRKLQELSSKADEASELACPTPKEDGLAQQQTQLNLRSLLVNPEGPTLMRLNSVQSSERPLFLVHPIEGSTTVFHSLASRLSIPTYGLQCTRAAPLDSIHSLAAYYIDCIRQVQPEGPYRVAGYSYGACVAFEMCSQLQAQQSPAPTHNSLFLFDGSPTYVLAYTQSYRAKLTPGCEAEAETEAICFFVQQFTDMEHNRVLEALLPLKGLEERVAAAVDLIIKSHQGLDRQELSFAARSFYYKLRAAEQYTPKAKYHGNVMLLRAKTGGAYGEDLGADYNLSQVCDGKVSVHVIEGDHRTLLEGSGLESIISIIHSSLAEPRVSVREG

As to `O=C(c1ccc(-c2cnc3ccccc3c2)cc1Cl)N1CCN(C(=O)C2(O)CC2)CC1`, the 50% inhibitory concentration (IC50) was under 500 nM on FASN enzyme and under 0.5 µM in the test on PC3 cells (setting [1]).
On to `O=C(c1ccc(-c2nc3ccccc3[nH]2)cc1)N1CCN(C(=O)C2(O)CC2)CC1`, for which the IC50 on FASN enzyme (FASN enzymatic assay, Table 2-2) was 500 to 5000 nM; in the test on PC3 cells (setting [1]), under 0.5 µM.
Consider `COc1cc(-n2cccn2)ccc1-c1ccc(C(=O)N2CCN(C(=O)C3(O)CC3)CC2)cc1`, for which the IC50 was under 500 nM against FASN enzyme and at least 0.5 µM with PC3 cells (read-out: IC50 (uM) ≥ 0.5, 10% lipid reduced serum, 4 days, Table 3-2).
Regarding `O=C(c1ccc(-c2cn3ccccc3n2)cc1)N1CCN(C(=O)C2(O)CC2)CC1`, the IC50 on FASN enzyme is under 500 nM; in the test with PC3 cells (setting [1]), under 0.5 µM.
On the same counts, the results for `O=C(c1ccc(-c2cc3ccccn3n2)cc1)N1CCN(C(=O)C2(O)CC2)CC1` are under 500 nM and under 0.5 µM.
In the same order, the values of `N#Cc1c[nH]c2ccc(-c3ccc(C(=O)N4CCN(C(=O)C5(O)CC5)CC4)cc3Cl)cc12` are under 500 nM and under 0.5 µM.
On the same counts, the results for `N#Cc1c[nH]c2ccc(-c3ccc(C(=O)N4CCN(C(=O)C5(O)CC5)CC4)c(Cl)c3)cc12` are under 500 nM and under 0.5 µM.
Turning to `CC(C)n1cc(C#N)c2cc(-c3ccc(C(=O)N4CCN(C(=O)C5(O)CC5)CC4)cc3)ccc21`, the results for the IC50 on FASN enzyme and in the test with PC3 cells (setting [1]) were under 500 nM and under 0.5 µM, respectively.
Regarding `O=C(c1ccc(-c2ccc3[nH]c(=O)ccc3c2)cc1)N1CCN(C(=O)C2(O)CC2)CC1`, in the test with PC3 cells (setting [1]), the IC50 was under 0.5 µM.
Consider `CC(C)S(=O)(=O)Nc1cccc(-c2ccc(C(=O)N3CCN(C(=O)C4(O)CC4)CC3)cc2)c1`, for which the IC50 against FASN enzyme was under 500 nM; in the test on PC3 cells (setting [1]), under 0.5 µM.
On to `O=C(c1ccc(-c2cn3ccccc3n2)cc1Cl)N1CCN(C(=O)C2(O)CC2)CC1` [1-({4-[(2-chloro-4-{imidazo[1,2-a]pyridin-2-yl}phenyl)carbonyl]piperazin-1-yl}carbonyl)cyclopropan-1-ol], for which the results for the half-maximal inhibitory concentration (IC50) on FASN enzyme and with PC3 cells (setting [1]) were under 500 nM and under 0.5 µM, respectively.
On the same counts, the results for `O=C(c1ccc2nc(-c3ccccc3)sc2c1)N1CCN(C(=O)C2(O)CC2)CC1` [1-({4-[(2-phenyl-1,3-benzothiazol-6-yl)carbonyl]piperazin-1-yl}carbonyl)cyclopropan-1-ol] are under 500 nM and under 0.5 µM.
In the same order, the values of `O=C(c1ccc(-c2ccc3[nH]ccc3n2)cc1)N1CCN(C(=O)C2(O)CC2)CC1` [1-({4-[(4-{1H-pyrrolo[3,2-b]pyridin-5-yl}phenyl)carbonyl]piperazin-1-yl}carbonyl)cyclopropan-1-ol] are under 500 nM and under 0.5 µM.
In the same order, the values of `O=C(c1ccc(-c2ccc3occc3n2)cc1)N1CCN(C(=O)C2(O)CC2)CC1` [1-({4-[(4-{furo[3,2-b]pyridin-5-yl}phenyl)carbonyl]piperazin-1-yl}carbonyl)cyclopropan-1-ol] are under 500 nM and under 0.5 µM.
Turning to `O=C(c1ccc(-c2ccc3nccn3n2)cc1)N1CCN(C(=O)C2(O)CC2)CC1` [1-({4-[(4-{imidazo[1,2-b]pyridazin-6-yl}phenyl)carbonyl]piperazin-1-yl}carbonyl)cyclopropan-1-ol], the half-maximal inhibitory concentration (IC50) against FASN enzyme is under 500 nM; in the test with PC3 cells (setting [1]), under 0.5 µM.
On the same counts, the results for `O=C(c1ccc(-c2ccc3ccccc3n2)c(F)c1F)N1CCN(C(=O)C2(O)CC2)CC1` [1-[(4-{[2,3-difluoro-4-(quinolin-2-yl)phenyl]carbonyl}piperazin-1-yl)carbonyl]cyclopropan-1-ol] are under 500 nM and under 0.5 µM.
On the same counts, the results for `Cn1ccc2cc(-c3ccc(C(=O)N4CCN(C(=O)C5(O)CC5)CC4)c(Cl)c3)ccc21` [1-[(4-{[2-chloro-4-(1-methyl-1H-indol-5-yl)phenyl]carbonyl}piperazin-1-yl)carbonyl]cyclopropan-1-ol] are under 500 nM and under 0.5 µM.
In the same order, the values of `O=C(c1ccc(-c2ccc3ncccc3c2)cc1Cl)N1CCN(C(=O)C2(O)CC2)CC1` [1-[(4-{[2-chloro-4-(quinolin-6-yl)phenyl]carbonyl}piperazin-1-yl)carbonyl]cyclopropan-1-ol] are under 500 nM and under 0.5 µM.
With `Cn1ccc2cc(-c3ccc(C(=O)N4CCN(C(=O)C5(O)CC5)CC4)c(F)c3)ccc21` [1-[(4-{[2-fluoro-4-(1-methyl-1H-indol-5-yl)phenyl]carbonyl}piperazin-1-yl)carbonyl]cyclopropan-1-ol], the IC50 against FASN enzyme was under 500 nM; in the test on PC3 cells (setting [1]), under 0.5 µM.
On the same counts, the results for `COc1nc2ccccc2cc1-c1ccc(C(=O)N2CCN(C(=O)C3(O)CC3)CC2)c(F)c1` [1-[(4-{[2-fluoro-4-(2-methoxyquinolin-3-yl)phenyl]carbonyl}piperazin-1-yl)carbonyl]cyclopropan-1-ol] are under 500 nM and under 0.5 µM.
On the same counts, the results for `COc1ccc2nc(-c3ccc(C(=O)N4CCN(C(=O)C5(O)CC5)CC4)c(F)c3)ccc2c1` [1-[(4-{[2-fluoro-4-(6-methoxyquinolin-2-yl)phenyl]carbonyl}piperazin-1-yl)carbonyl]cyclopropan-1-ol] are under 500 nM and under 0.5 µM.
On the same counts, the results for `O=C(c1ccc(-c2cc(F)c3[nH]ccc3c2)cc1F)N1CCN(C(=O)C2(O)CC2)CC1` [1-[(4-{[2-fluoro-4-(7-fluoro-1H-indol-5-yl)phenyl]carbonyl}piperazin-1-yl)carbonyl]cyclopropan-1-ol] are under 500 nM and under 0.5 µM.
For the compound `O=C(c1ccc(-c2cnc3ccccc3c2)cc1F)N1CCN(C(=O)C2(O)CC2)CC1` [1-[(4-{[2-fluoro-4-(quinolin-3-yl)phenyl]carbonyl}piperazin-1-yl)carbonyl]cyclopropan-1-ol], the half-maximal inhibitory concentration (IC50) against FASN enzyme is under 500 nM; with PC3 cells (setting [1]), under 0.5 µM.
`O=C(c1ccc(-c2ccc3ncccc3c2)cc1F)N1CCN(C(=O)C2(O)CC2)CC1` [1-[(4-{[2-fluoro-4-(quinolin-6-yl)phenyl]carbonyl}piperazin-1-yl)carbonyl]cyclopropan-1-ol]: the values for the IC50 against FASN enzyme and with PC3 cells (setting [1]) were under 500 nM and under 0.5 µM, respectively.
In the same order, the values of `Cn1ccc2cc(-c3ccc(C(=O)N4CCN(C(=O)C5(O)CC5)CC4)cc3Cl)ccc21` [1-[(4-{[3-chloro-4-(1-methyl-1H-indol-5-yl)phenyl]carbonyl}piperazin-1-yl)carbonyl]cyclopropan-1-ol] are under 500 nM and under 0.5 µM.
In the same order, the values of `O=C(c1ccc(-c2cnc3ccccc3c2)c(Cl)c1)N1CCN(C(=O)C2(O)CC2)CC1` [1-[(4-{[3-chloro-4-(quinolin-3-yl)phenyl]carbonyl}piperazin-1-yl)carbonyl]cyclopropan-1-ol] are under 500 nM and under 0.5 µM.
In the same order, the values of `O=C(c1ccc(-c2ccc3ncccc3c2)c(Cl)c1)N1CCN(C(=O)C2(O)CC2)CC1` [1-[(4-{[3-chloro-4-(quinolin-6-yl)phenyl]carbonyl}piperazin-1-yl)carbonyl]cyclopropan-1-ol] are under 500 nM and under 0.5 µM.
For `O=C(c1ccc(-c2cnc3ccccc3c2)c(F)c1)N1CCN(C(=O)C2(O)CC2)CC1` [1-[(4-{[3-fluoro-4-(quinolin-3-yl)phenyl]carbonyl}piperazin-1-yl)carbonyl]cyclopropan-1-ol], the IC50 is under 500 nM on FASN enzyme and under 0.5 µM in the test on PC3 cells (setting [1]).
For the compound `COc1ccc(OC(F)(F)F)cc1-c1ccc(C(=O)N2CCN(C(=O)C3(O)CC3)CC2)cc1` [1-{[4-({4-[2-methoxy-5-(trifluoromethoxy)phenyl]phenyl}carbonyl)piperazin-1-yl]carbonyl}cyclopropan-1-ol], in the test with PC3 cells (setting [1]), the IC50 was under 0.5 µM.
Regarding `O=C(Nc1noc2ccc(-c3ccc(C(=O)N4CCN(C(=O)C5(O)CC5)CC4)cc3)cc12)C1CC1` [N-(5-{4-[4-(1-hydroxycyclopropanecarbonyl)piperazine-1-carbonyl]phenyl}-1,2-benzoxazol-3-yl)cyclopropanecarboxamide], the IC50 against FASN enzyme was under 500 nM.
Still for that read-out and setting: to `O=C(Nc1noc2cc(-c3ccc(C(=O)N4CCN(C(=O)C5(O)CC5)CC4)cc3)ccc12)C1CC1` [N-(6-{4-[4-(1-hydroxycyclopropanecarbonyl)piperazine-1-carbonyl]phenyl}-1,2-benzoxazol-3-yl)cyclopropanecarboxamide] belongs under 500 nM; to `O=C(NC1CC1)c1cccc(-c2ccc(C(=O)N3CCN(C(=O)C4(O)CC4)CC3)cc2)c1` [N-cyclopropyl-3-[4-({4-[(1-hydroxycyclopropyl)carbonyl]piperazin-1-yl}carbonyl)phenyl]benzamide], under 500 nM; to `O=C(c1ccc(-c2cccc(S(=O)(=O)NC3CC3)c2)cc1)N1CCN(C(=O)C2(O)CC2)CC1` [N-cyclopropyl-3-[4-({4-[(1-hydroxycyclopropyl)carbonyl]piperazin-1-yl}carbonyl)phenyl]benzene-1-sulfonamide], under 500 nM.
Compound `CCOC(=O)Nc1cccc(-c2ccc(C(=O)N3CCN(C(=O)C4(O)CC4)CC3)cc2)c1` [ethyl N-(3-{4-[4-(1-hydroxycyclopropanecarbonyl)piperazine-1-carbonyl]phenyl}phenyl)carbamate] came in with an IC50 at FASN enzyme of under 500 nM.
For `CC(C)OC(=O)Nc1cccc(-c2ccc(C(=O)N3CCN(C(=O)C4(O)CC4)CC3)cc2)c1` [propan-2-yl N-(3-{4-[4-(1-hydroxycyclopropanecarbonyl)piperazine-1-carbonyl]phenyl}phenyl)carbamate], the half-maximal inhibitory concentration (IC50) against FASN enzyme was under 500 nM.
